# Where two headings read alike, the source gives them in different places.
# Columns and labels:
# Type in all cases: cell-based
# HIV-1 NL432 = assay: Antiviral assay in infected Molt-4 cells, virus measured by RT activity; settings: read-out: EC50 HIV-1 NL432
# Method: (§1) (1) Molt-4 cells (2×10^6 cells) were infected with HIV-1 NL432 (4×10^6 cpm), HIV-2 Rod (8×10^6 cpm), SIVmac MA239 (8×10^6 cpm) and SIVagm SA212 (8×10^6 cpm), and incubated for 1 hr at room temperature.
# (§2) {circle over (1)} Preparation of HIV-1 virus: SW480 cells were cultured in DMEM medium supplemented with 10% fetal bovine serum using 25 cm^2 flask. HIV-1 infectious molecular DNA (40 μg), pNL432, transfected to the cells by calcium phosphate coprecipitation method, and the supernatant (2 mL) at 2-3 days post-transfection was infected to M8166 cells (1×10^6 cells). The cells were cultured in 10 mL RPMI medium supplemented with 10% fetal bovine serum in CO2 incubator at 37° C. After apparent giant cells were observed, the cells were removed by centrifugation and then the supernatant was filtrated by 0.45 μm filter, measured RT activity, and stored at −80° C. as HIV-1 stock virus.
# (§3) {circle over (2)} The cells were washed twice to remove the viruses and suspended in 10 mL RPMI medium supplemented with 10% fetal bovine serum. The infected cells (100 μL) were plated in 96-well microtiter plates containing with the serial 5 fold dilution of compounds (100 μL) and cultured in CO2 incubator at 37° C.
# (§4) {circle over (3)} The supernatant at 5 days postinfection was harvested and measured the amount of the virus by RT activity.
# (§5) Preparation of the solution for RT assay:
# (§6) A reaction mixture (90 μL) were contained 50 mM Tris-HCl, pH 8.3, 150 mM KCl, 10 mM MgCl2, 0.1% Nonidet P-40, 10 mM DTT (dithiothreitol), 5 μg/mL poly(rA), 5 μg/mL (dT)12-18 and 1 μCi [^3H] dTTP at final concentration after mixture of a sample (10 μL).
# (§7) The procedure of RT assay:
# (§8) 1. 10 μL of sample was plated to 3 wells of 96-well microtiter plate (triplicate assay).
# (§9) 2. Reaction mixture (90 μL) chilled at 4° C. was added to each well, mixed and then incubate at 37° C. for 3 hrs.
# (§10) 3. After incubation, the plate was chilled on ice, and passed through a DEAE-Filtermat using cell harvester. The filter was washed with 4.5% Na2HPO4 (20 see) and H2O (10 sec).
# (§11) 4. The filter was dried at 95° C. for 15 min.
# (§12) 5. 10 mL of scintilator was added and sealed.
# (§13) 6. Radioactivity was measured by LKB Beta Plate scintillation spectroscopy.
# (§14) 7. RT activity (cpm/mL) was calculated from average of three wells.
# HIV-2 Rod = assay: as above; settings: read-out: EC50 HIV-2 ROD
# Method: as §1
# {circle over (2)} Preparation of HIV-2 virus: HIV-2 Rod was infected to M8166 cells (1×10^6 cells). The cells were cultured in 10 mL RPMI medium supplemented with 10% fetal bovine serum in CO2 incubator at 37° C. After apparent giant cells were observed, the cells were removed by centrifugation and then the supernatant was filtrated by 0.45 μm filter, measured RT activity, and stored at −80° C. as HIV-2 stock virus.
# as §3, §4, §5, §6, §7, §8, §9, §10, §11, §12, §13, §14
# SIVmac MA239 = assay: as above; settings: 120 h, RT activity of supernatant at 5 days postinfection
# Method: as §1
# as §2, with “over (3)}” for “over (1)}”, “of SIVmac” for “of HIV-1”, “flask. SIVmac MA239” for “flask. HIV-1”, “μg), pMA239,” for “μg), pNL432,”, “to CEMX174” for “to M8166”, “as SIVmac” for “as HIV-1”
# as §3, §4, §5, §6, §7, §8, §9, §10, §11, §12, §13, §14
# SIVagm SA212 = assay: as above; settings: 120 h, RT activity of supernatant at 5 days postinfection
# Method: as §1
# {circle over (4)} Preparation of SIVagm virus: SW480 cells were cultured in DMEM medium supplemented with 10% fetal bovine serum using 25 cm^2 flask. SIVagm SA212 infectious molecular DNA (40 μg), pSA212, transfected to the cells by calcium phosphate coprecipitation methods, and the supernatant (2 mL) at 2-3 days post-transfection was infected to M8166 cells (1×10^6 cells). The cells were cultured in 10 mL RPMI medium supplemented with 10% fetal bovine serum in CO2 incubator at 37° C. Every 3 days, the cells were separated from the supernatant by centrifugation and continued culture with new culture medium. The each supernatant was filtrated by 0.45 μm filter, measured RT activity, and stored at −80° C. as SIVagm stock virus.
# as §3, §4, §5, §6, §7, §8, §9, §10, §11, §12, §13, §14
# HIV (HTLV-IIIB strain) = assay: MTT assay, MT-4 cells infected with HIV; settings: Human immunodeficiency virus 1, MT4, 120 h, 5 days, inhibits 50% of cell damage caused by virus, read-out: EC50
# Method: The inhibitory effects of each anti-human immunodeficiency virus active substance against human immunodeficiency virus have been determined by MTT assay described below.
# (1) Human T cell strain Molt-4 clone 8 persistently infected HIV (HTLV-IIIB strain) was cultivated in RPMI-1640 medium supplemented with 10% fatal bovine serum, and supernatant was filtered, measured RT activity, and stored at −80° C. On the other hand, each human anti-immunodeficiency virus active substance was diluted to fixed concentration in culture medium, they were plated to 96-well microtiter plate. Subsequently, 100 μL (3.5×10^4 cells) of MT-4 cell suspension was plated to 96-well microtiter plate, and then above mentioned supernatant containing HIV, which was diluted by culture medium, was added 50 μL (60 pfu (plaque forming unit.)) to 96-well microtiter plate.
# (2) After cultivation at 37° C. for 5 days in CO2 incubator, into all well was added 30 μL per well 3-(4,5-[…])-2,5-diphenyltetrazolium bromide (MTT) 5 mg/mL) and PBS, and then incubated for 1 h.
# In this time, alive cells reduced MTT and formazan was precipitated, therefore, 150 μL of cell supernatants were removed from all wells, and then 150 μL of lysate (10% triton X-100 and 0.4% (v/v) HCl-containing isopropanol) was added, and formazan was eluated on a plate shaker.
# [1] = tested on: feline immunodeficiency virus (FIV TM-2 strain); assay: FIV antiviral assay in MYA-1 feline T cells, RT activity; settings: T-cell, 240 h, FIV TM-2, MYA-1 cells, RT activity at 10 days postinfection
# Method: (1) The serial 5 fold diluted samples were plated in 24 well microtiter plate. Feline T-cell lines (MYA-1 cells: 4×10^5 cells/well) and feline immunodeficiency virus (FIV TM-2 strain: 3000 cpm/well) were added to each well. The cells were cultured with 1.5 mL RPMI medium supplemented with 10% fetal bovine serum, 2 μg/mL polybrene, 100 unit/mL human recombinant IL-2 and 50 μM 2-mercaptoethanol in CO2 incubator at 37° C.
# {circle over (1)} Preparation of FIV TM-2 virus: FIV TM-2 was infected to MYA-1 cells (1×10^6 cells). The cells were cultured in 10 mL RPMI medium supplemented with 10% fetal bovine serum, 2 μg/mL polybrene, 100 unit/ml human recombinant IL-2 and 50 μM 2-mercaptoethanol in CO2 incubator at 37° C. Every 1-2 days, the cells were separated from the supernatant by centrifugation and continued culture with new culture medium. Each of the supernatant was filtrated by 0.45 μm filter, measured RT activity, and stored at as −80° C. as FIV stock virus.
# (2) Every 1-2 days, the supernatants were measured the amount of the virus by RT activity (as same as experimental example 2).
# [2] = Human immunodeficiency virus 1, 120 h, Molt-4 cells, RT activity of supernatant at 5 days postinfection
# [3] = Human immunodeficiency virus 2, 120 h, Molt-4 cells, RT activity of supernatant at 5 days postinfection
EC50 (HIV-1 NL432; [2]) [ng/mL],EC50 (HIV-2 Rod; [3]) [ng/mL],EC50 (SIVmac MA239) [ng/mL],EC50 (SIVagm SA212) [ng/mL],EC50 [1] [ng/mL],SMILES,EC50 (HIV (HTLV-IIIB strain)) [ng/mL],"EC50 (HIV-1 NL432; Human immunodeficiency virus 1, MOLT-4, 120 h) [ng/mL]","EC50 (HIV-2 Rod; Human immunodeficiency virus 2, MOLT-4, 120 h) [ng/mL]"
8.4,22,9.1,22,,"Nc1ccn(C2CSC(CO)O2)c(=O)n1 (single isomer, unassigned; (-)) [Lamivudine, (−)-2′,3+-dideoxy-3′-thiacytidine]",38,,
57,35,57,44,300,"O=C(C=C(O)c1nc[nH]n1)c1ccc(Cc2ccc(F)cc2)o1 [Compound I-16, 1-[5-(4-Fluorobenzyl)furan-2-yl]-3-hydroxy-3-(1H-1,2,4-triazol-3-yl)propenone]",,,
0.51,0.28,0.35,0.36,48,"Cc1cn(C2CC(N=[N+]=[N-])C(CO)O2)c(=O)[nH]c1=O (stereo not drawn) [Zidovudine, 3′-azido-3′-deoxycytimidine]",1.8,,

SMILES,EC50 (HIV-1 NL432; [2]) [ng/mL],EC50 (HIV-2 Rod; [3]) [ng/mL],EC50 (SIVmac MA239) [ng/mL],EC50 (SIVagm SA212) [ng/mL],EC50 [1] [ng/mL],EC50 (HIV (HTLV-IIIB strain)) [ng/mL],"EC50 (HIV-1 NL432; Human immunodeficiency virus 1, MOLT-4, 120 h) [ng/mL]","EC50 (HIV-2 Rod; Human immunodeficiency virus 2, MOLT-4, 120 h) [ng/mL]"
Cc1cn([C@H]2C=C[C@@H](CO)O2)c(=O)[nH]c1=O [Stavudine],,,3.4,4.5,,50,6.1,4.1

# From patent US20030171406A1, “Medicinal compositions containing propenone derivatives” (priority 2000, published 2003)
